Data as given in EP1065215A1 (Boehringer Ingelheim International GmbH, priority 1999, dated 2001).

Legend:
Experiment in all cases: Displacement of [3H]AMPA binding on membranes of transfected HEK293 cells
Conditions in all cases: mean ± S.E.; for Hill slope: displacement of [3H]AMPA binding, Prism software
[1] = molecular target: T1, GluR1 (1-24) (Homo sapiens, UniProt P42261)
T1 construct: expressed in transfected cells; host or cells: HEK293, plasmid pHGluR1/pcDNA3
Experimental: (§1) In order to examine the pharmacological identity of the stably expressed recombinant receptors, competitive binding studies were performed.
(§2) The binding studies were carried out as outlined previously (Keinänen et al., 1990; Fletcher et al., 1995). […] The pellets were resuspended in 50 mM Tris-HCl (pH 7.5) and repeated the homogenization and centrifugation. […] The cell membranes were incubated with the radioligand for 60 minutes on ice, and subsequently collected by rapid filtration through GF/C filters. […] The filters were washed rapidly with cold assay buffer. The radioactivity retained in the filters was measured by liquid scintillation counting.

[2] = molecular target: T2, GluR3 (5-42) (Homo sapiens, UniProt P42263)
T2 construct: expressed in transfected cells; host or cells: HEK293, plasmid pHGluR3/pcDNA3
Experimental: as §1, §2

[3] = molecular target: T3, GluR4 (4-19) (Homo sapiens, UniProt P48058)
T3 construct: expressed in transfected cells; host or cells: HEK293, plasmid pHGluR4/pcDNA3
Experimental: as §1, §2

[4] = displacement of [3H]AMPA, Cheng-Prusoff equation, 0.1 M KSCN, on ice

T3 sequence (P48058 21-902): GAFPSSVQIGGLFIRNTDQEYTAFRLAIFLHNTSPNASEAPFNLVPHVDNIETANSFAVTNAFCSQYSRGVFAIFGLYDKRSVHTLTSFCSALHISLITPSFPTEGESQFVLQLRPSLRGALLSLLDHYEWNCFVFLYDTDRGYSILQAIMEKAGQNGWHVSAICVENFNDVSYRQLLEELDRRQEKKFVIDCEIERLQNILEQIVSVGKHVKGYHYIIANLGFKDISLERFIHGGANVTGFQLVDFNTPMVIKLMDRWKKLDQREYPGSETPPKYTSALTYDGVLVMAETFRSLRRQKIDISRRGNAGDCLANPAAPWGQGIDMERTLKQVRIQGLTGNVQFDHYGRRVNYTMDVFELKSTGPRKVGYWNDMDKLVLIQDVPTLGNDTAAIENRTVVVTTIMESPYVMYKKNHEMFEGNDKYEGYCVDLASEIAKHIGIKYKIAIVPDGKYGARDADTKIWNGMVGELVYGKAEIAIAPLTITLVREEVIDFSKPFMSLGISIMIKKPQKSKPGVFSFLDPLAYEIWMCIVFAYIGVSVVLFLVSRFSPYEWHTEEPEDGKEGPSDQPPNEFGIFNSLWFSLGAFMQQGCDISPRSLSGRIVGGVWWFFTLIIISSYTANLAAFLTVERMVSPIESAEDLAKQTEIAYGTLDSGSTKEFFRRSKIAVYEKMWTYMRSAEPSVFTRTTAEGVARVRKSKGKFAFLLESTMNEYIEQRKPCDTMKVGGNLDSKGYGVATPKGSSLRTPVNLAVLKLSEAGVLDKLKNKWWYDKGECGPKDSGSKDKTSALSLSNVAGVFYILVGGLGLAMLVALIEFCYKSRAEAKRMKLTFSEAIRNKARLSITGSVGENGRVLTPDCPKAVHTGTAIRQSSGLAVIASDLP
T1 sequence (P42261 19-906 isoform P42261-2 limits assumed): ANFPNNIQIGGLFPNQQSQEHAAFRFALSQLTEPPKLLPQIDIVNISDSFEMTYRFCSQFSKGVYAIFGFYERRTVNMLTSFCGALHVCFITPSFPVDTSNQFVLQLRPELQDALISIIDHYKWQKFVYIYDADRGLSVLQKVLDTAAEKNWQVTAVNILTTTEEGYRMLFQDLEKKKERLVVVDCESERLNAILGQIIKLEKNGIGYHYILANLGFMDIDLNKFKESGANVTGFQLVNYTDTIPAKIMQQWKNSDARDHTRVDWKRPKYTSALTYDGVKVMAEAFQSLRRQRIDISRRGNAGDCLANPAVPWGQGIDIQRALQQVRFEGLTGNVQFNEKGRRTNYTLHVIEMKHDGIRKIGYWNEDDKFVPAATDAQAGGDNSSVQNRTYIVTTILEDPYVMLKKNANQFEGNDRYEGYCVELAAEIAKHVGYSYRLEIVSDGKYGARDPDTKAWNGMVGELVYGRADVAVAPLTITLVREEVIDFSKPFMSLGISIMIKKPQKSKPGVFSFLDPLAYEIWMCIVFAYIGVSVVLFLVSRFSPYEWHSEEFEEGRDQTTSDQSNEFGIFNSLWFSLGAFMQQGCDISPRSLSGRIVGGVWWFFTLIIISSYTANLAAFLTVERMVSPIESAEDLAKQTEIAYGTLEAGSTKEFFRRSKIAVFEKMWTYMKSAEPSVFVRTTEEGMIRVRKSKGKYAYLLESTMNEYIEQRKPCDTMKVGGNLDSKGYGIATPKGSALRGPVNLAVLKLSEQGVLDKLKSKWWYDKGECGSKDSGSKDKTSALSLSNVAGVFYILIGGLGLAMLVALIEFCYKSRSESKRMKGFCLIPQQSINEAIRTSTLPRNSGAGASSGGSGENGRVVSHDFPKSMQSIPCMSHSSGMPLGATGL
T2 sequence (P42263 29-894 isoform P42263-2 limits assumed): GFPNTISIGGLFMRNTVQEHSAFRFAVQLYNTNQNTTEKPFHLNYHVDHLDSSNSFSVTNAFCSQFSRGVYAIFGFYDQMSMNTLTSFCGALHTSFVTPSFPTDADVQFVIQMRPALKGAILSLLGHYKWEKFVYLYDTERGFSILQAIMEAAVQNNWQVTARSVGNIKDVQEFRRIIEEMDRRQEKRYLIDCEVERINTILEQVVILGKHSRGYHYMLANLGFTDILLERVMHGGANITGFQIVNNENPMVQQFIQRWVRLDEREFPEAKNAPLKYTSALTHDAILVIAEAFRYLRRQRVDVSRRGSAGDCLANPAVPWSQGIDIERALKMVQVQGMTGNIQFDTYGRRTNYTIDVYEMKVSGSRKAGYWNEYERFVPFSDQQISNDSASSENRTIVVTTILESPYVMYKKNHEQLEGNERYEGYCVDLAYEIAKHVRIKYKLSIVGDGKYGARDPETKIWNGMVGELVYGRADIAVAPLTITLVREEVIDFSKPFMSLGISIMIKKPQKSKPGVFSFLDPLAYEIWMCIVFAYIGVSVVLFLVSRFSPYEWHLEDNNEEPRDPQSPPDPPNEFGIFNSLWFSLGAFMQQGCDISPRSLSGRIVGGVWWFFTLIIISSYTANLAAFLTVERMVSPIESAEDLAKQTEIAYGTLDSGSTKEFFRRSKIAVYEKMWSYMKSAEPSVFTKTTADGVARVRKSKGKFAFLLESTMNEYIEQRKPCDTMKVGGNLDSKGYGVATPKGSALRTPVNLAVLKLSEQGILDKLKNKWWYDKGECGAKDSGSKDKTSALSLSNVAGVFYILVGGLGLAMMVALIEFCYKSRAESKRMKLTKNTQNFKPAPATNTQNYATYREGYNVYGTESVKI

N#Cc1cc2[nH]c(=O)c(=O)[nH]c2cc1[N+](=O)[O-] [CNQX]
Hill slope [1]: -1.00 ± 0.06
Hill slope [2]: -0.83 ± 0.06
Hill slope [3]: -0.86 ± 0.06

CN1Cc2c(S(=O)(=O)N(C)C)cc3c(c2C1)NC(=O)C3=NO [NS257]
Hill slope [1]: -0.85 ± 0.08
Ki [1, 4]: 1970 ± 148 nM
Hill slope [2]: -1.01 ± 0.22
Ki [2, 4]: 967 ± 124 nM
Hill slope [3]: -0.83 ± 0.03
Ki [3, 4]: 1050 ± 78 nM
